From patent US20210353784A1, “DETECTING AND TREATING CANCERS USING CELL PENETRANT MTP53-OLIGOMERIZATION-DOMAIN PEPTIDE” (priority 2020, published 2021)

Experiments:
[1] = tested on: WHIM6 and WHIM25 tumors; test: SDS-PAGE Cy5 signal of protein extracts from WHIM6 and WHIM25 PDX tumors; format: in vivo, NSG mice; conditions: SDS-PAGE of tumor extracts
Experimental: First, WHIM6/WHIM25 bilateral PDX tumor-bearing NSG mice were tail vein injected with 10 nmol of Cy5p53Tet peptide to study its delivery efficacy (FIG. 5A). Then, the WHIM6 and WHIM25 tumors were removed at 1, 2, and 3 hr post-injection. Uptake of the Cy5p53Tet peptide in WHIM6 and WHIM25 tumors was assessed on an in vivo epifluorecent imaging system (IVIS). […] The Cy5p53Tet peptide signal was investigated in PDX tumor tissue by extracting proteins from the WHIM6 and WHIM25 tumors post-injection with the Cy5p53Tet peptide at 1 hr, 2 hr, and 3 hr, and the Cy5p53Tet peptide effects were characterized in PDX models (FIG. 5B). Samples were run on 12% polyacrylamide gel and the Cy5p53Tet peptide accumulated in tumors was scanned at Cy5 channel and quantified. […] In addition, p53 and MDM2 protein levels were checked upon Cy5p53Tet peptide treatment in PDX tumors.

[2] = tested on: p53, p73 and PARP1 protein levels in WHIM6 and WHIM25 tumors; test: Western blot of p53, p73 and PARP1 protein levels in PDX tumors after Cy5p53Tet injection; format: in vivo, NSG mice
Experimental: 25 μg of proteins were run on 12% polyacrylamide gel and the Cy5p53Tet peptide accumulated in tumors was scanned at Cy5 channel and quantified. The intensity of Cy5p53Tet peptide was analyzed by ImageJ. p53 and MDM2 protein levels from the WHIM6 and WHIM25 tumors post-injection with Cy5p53Tet peptide at 1 hr, 2 hr and 3 hr were determined by Western blot analysis. 25 ug of proteins were load on 12% SDS-PAGE gel.
FIG. 5C is a Western blot analysis showing p53, p63 and p73 protein levels from the WHIM6 and WHIM25 tumors 2 hr post injection with Cy5p53Tet peptide. 75 ug of proteins were load on 10% SDS-PAGE gel (left panel). p53, PARP1 and p73 protein levels from the WHIM6 and WHIM25 tumors 1 hr, 2 hr and 3 hr post injection with Cy5p53Tet peptide were determined by Western blot analysis (right panel). 50 ug of proteins were load on 10% SDS-PAGE gel.
PDX models have been used in translational cancer research to validate the mechanisms that link specific biomarkers to treatment efficacy that could make clinical decisions. The coexpression of mtp53 and PARP1 proteins can be biomarkers for companion diagnostics using PDX models with mtp53. […] Uptake of the Cy5p53Tet peptide in WHIM6 and WHIM25 tumors was assessed on an in vivo epifluorecent imaging system (IVIS). The Cy5p53Tet peptide was detected in both TNBC PDX tumors; however, there was a higher Cy5 fluorescence signal in the tumor site of WHIM6 compared to tumor site of WHIM25 (FIG. 5A, represent picture of 2 hr post injection). […] Samples were run on 12% polyacrylamide gel and the Cy5p53Tet peptide accumulated in tumors was scanned at Cy5 channel and quantified. […]
Given the high degree of structural similarity of the tetramerization domain shared by the p53 family members, p63, and p73, the Cy5p53Tet peptide is believed to bind to TD of p63 or p73 and cause the Cy5p53Tet peptide accumulation in WHIM6 tumors. […] A higher level of p63 was detected in WHIM6 than in WHIM25 tumors (FIG. 5C left panel, compare lane 1 to 2). p73 protein levels were very low in both WHIM6 and WHIM25 tumors. […]

## H-CysCy5-RKKRRQRRGEYFTLQIRGRERFEMFRELNEALELK-OH (N-terminal Cy5; Synthetic peptide based on p53 protein) [Cy5p53Tet]
[1]
  retention of Cy5p53Tet in mtp53 R273H WHIM25 versus wtp53 WHIM6: longer
[2]; WHIM25 and WHIM6 tumors
  mtp53 and wtp53 protein levels upon treatment: not affected
[2]; mtp53 WHIM25 tumor samples
  PARP1 protein levels in response to the peptide: deceased
  p73 protein levels in response to the peptide: increased
